The source of these data is US8247556B2, “Method for preparing 6-substituted-7-aza-indoles” (Amgen Inc., priority 2005, dated 2012).

For one assay, the target named is T1, CYP 3A4 (Homo sapiens, UniProt P08684).
T1 construct: followed by 222.2 ml of 20 mg/mL HLM (BD Gentest); tissue BD Gentest; host or cells: human liver microsomes
The assay is described as follows: Human Liver Microsome CYP 3A4 Inhibition. Type of assay: in vitro ADME. As to conditions: human liver microsomes, midazolam substrate; read-out: inhibited CYP3A4 microsomes, IC50.

The next assay has as its target T2, CYP 2D6 (Homo sapiens, UniProt P10635).
T2 construct: followed by 555.6 ml of 20 mg/mL HLM (BD Gentest); tissue BD Gentest; host or cells: human liver microsomes
Briefly: Human Liver Microsome CYP 2D6 Inhibition. Format: in vitro ADME. As to conditions: human liver microsomes, bufuralol substrate; read-out: inhibited CYP2D6 microsomes, IC50. An outline of the steps: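 Pooled human liver microsomes with bufuralol in potassium phosphate pH 7.4, preincubated with inhibitor at 37 °C; reaction started with NADPH, quenched after 5 min with 0.1% TFA in acetonitrile. 1′-OH-bufuralol quantified by LC-MS with deuterated internal standard; IC50 determined, quinidine 500 nM as control.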
For orientation: Liver microsomes are vesicles of endoplasmic reticulum, rich in cytochrome P450 enzymes.

The subject of assay [1] is VEGF-stimulated HUVEC proliferation (Human Umbilical Vein Endothelial cells). Briefly: HUVEC Proliferation Assay. Format: cell-based. Particulars: VEGF 50 ng/mL, 72 h, CyQuant fluorescent dye, read-out: inhibited VEGF-stimulated HUVEC proliferation at a level. An outline of the steps: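 HUVEC (passage 2–3) were seeded in DMEM+10% FBS for 22 h, then pre-incubated 2–3 h with 5-point, 5-fold compound dilutions (0.25% DMSO). They were then stimulated with VEGF (50 ng/mL final) for 72 h at 37 °C. Proliferation was read by CyQuant fluorescence (485/530 nm) after freeze-thaw, and IC50 came from a 4-parameter fit.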

T1 sequence (P08684 whole entry): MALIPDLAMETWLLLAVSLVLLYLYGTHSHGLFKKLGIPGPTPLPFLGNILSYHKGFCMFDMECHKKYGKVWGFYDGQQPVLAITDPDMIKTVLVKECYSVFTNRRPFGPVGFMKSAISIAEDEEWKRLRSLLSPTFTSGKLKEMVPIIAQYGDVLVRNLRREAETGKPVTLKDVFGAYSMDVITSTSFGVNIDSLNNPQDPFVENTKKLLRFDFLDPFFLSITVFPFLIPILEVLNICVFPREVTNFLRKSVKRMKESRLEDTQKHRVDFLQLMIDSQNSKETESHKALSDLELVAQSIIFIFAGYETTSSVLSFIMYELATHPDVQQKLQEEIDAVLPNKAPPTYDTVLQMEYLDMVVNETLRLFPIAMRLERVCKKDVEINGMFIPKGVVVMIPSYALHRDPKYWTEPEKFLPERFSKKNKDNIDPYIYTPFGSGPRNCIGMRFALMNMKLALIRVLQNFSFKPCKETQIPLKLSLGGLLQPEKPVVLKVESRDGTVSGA
T2 sequence (P10635 whole entry): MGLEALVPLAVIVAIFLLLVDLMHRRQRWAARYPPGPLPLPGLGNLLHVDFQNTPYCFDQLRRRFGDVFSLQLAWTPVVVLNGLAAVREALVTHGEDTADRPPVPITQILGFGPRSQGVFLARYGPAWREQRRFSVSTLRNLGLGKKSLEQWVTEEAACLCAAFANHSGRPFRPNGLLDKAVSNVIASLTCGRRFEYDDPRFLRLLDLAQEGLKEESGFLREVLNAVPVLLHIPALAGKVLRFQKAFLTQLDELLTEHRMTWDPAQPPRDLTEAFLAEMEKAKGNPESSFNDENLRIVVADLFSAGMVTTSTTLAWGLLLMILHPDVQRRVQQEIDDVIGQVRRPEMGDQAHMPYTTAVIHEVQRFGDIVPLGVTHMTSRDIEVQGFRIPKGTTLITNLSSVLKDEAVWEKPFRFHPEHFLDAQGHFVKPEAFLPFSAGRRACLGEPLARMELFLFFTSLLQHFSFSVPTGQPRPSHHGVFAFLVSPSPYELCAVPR

On to `CC(C)c1ccc(NC(=O)c2cc(F)cnc2NCc2ccnc3[nH]ncc23)cc1` [Example 123, 5-Fluoro-N-(4-(1-methylethyl)phenyl)-2-((1H-pyrazolo[3,4-b]pyridin-4-ylmethyl)amino)-3-pyridinecarboxamide], for which the results for the IC50 (at CYP 3A4; on CYP 2D6; in assay [1]) were over 20 µM, over 20 µM and under 0.5 µM, respectively.
With `CC1(C)CNC(=O)c2cc(NC(=O)c3cccnc3NCc3ccnc4[nH]ccc34)ccc21` [Example 56, N-(4,4-Dimethyl-1-oxo-1,2,3,4-tetrahydro-isoquinolin-7-yl)-2-[(1H-pyrrolo[2,3-b]pyridin-4-ylmethyl)-amino]-nicotinamide], the IC50 is over 20 µM on CYP 3A4, over 20 µM at CYP 2D6 and under 0.5 µM in assay [1].
As for `O=C(Nc1cc(OC[C@H]2CCCO2)cc(C(F)(F)F)c1)c1cccnc1NCc1ccnc2[nH]ccc12` [Example 36, 2-[(1H-pyrrolo[2,3-b]pyridin-4-ylmethyl)amino]-N-[3-[(2R)-tetrahydrofuran-2-ylmethoxy]-5-(trifluoromethyl)phenyl]nicotinamide], the IC50 was over 20 µM on CYP 3A4, over 20 µM on CYP 2D6 and under 0.5 µM in assay [1].
